Measurements taken from US11066369B2, “N-(pyridin-2-yl)pyridine-sulfonamide derivatives and their use in the treatment of disease” (Novartis AG, priority 2016, dated 2021).
Structures can show the parent of a compound that is named as a salt.

Columns and labels:
delF508-CFTR = target: T1, delF508-CFTR (Homo sapiens, UniProt P13569, DEL508-508); test: Measurement of delF508-CFTR functional activity in primary human bronchial epithelial cells (HBECs) using Multi-Transepithelial Clamp Circuit (MTECC-24) assay; assay type: cell-based; settings: primary CF HBECs; for MTECC24 CFHBEC- Amax %: test compound added 24h before assay plus potentiator, relative to reference combination (2 μM corrector + 0.5 μM potentiator); for EC50: test compound added 24h before assay, in the presence of potentiator, mean of at least two replicates, read-out: MTECC24 CFHBEC- EC50
T1 construct: functional activity of the CFTR channel (Chloride ion transport) in patient derived primary human bronchial epithelial cells; host or cells: patient-derived primary human bronchial epithelial cells (delF508-CFTR)
Summary of the method: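 Patient-derived primary delF508-CFTR HBECs, differentiated at air-liquid interface ~2 weeks, treated basolaterally with compound for 24 h, then apical and basolateral compound in HEPES pH 7.4 assay medium. Equivalent short-circuit current (Ieq) recorded on MTECC-24 with sequential amiloride, forskolin, potentiator and INH-172; normalized to 0.1% DMSO, EC50 from curve fit.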

[1] = target: T2, horseradish peroxidase (HRP) tagged delF508-CFTR (Homo sapiens, UniProt P13569, DEL508-508); test: Measurement of delF508-CFTR-HRP surface expression in CFBE41o- cells; assay type: cell-based; settings: delF508-CFTR-HRP surface expression, CFBE41o- cells; for Emax: read-out: DelF508-CFTR-HRP Amax %; for EC50: read-out: DelF508-CFTR-HRP EC50;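 for DelF508-CFTR-HRP Amax %: percent efficacy relative to reference corrector lumacaftor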
T2 construct: expressed in transfected cells
Summary of the method: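 CFBE41o- bronchial epithelial cells stably expressing delF508-CFTR with HRP in the fourth extracellular loop; expression induced 48h with 500 ng/mL doxycycline, then compounds added (top 10 μM, 10-point 3-fold series, ≤0.5% DMSO) for 24h at 37° C. Surface HRP measured by luminescence with cell-impermeant substrate; EC50 from logistic fit of triplicates, plate-normalized to lowest concentration; efficacy also relative to a reference corrector.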

T2 sequence (P13569 with tags, fused parts or gaps DEL508-508): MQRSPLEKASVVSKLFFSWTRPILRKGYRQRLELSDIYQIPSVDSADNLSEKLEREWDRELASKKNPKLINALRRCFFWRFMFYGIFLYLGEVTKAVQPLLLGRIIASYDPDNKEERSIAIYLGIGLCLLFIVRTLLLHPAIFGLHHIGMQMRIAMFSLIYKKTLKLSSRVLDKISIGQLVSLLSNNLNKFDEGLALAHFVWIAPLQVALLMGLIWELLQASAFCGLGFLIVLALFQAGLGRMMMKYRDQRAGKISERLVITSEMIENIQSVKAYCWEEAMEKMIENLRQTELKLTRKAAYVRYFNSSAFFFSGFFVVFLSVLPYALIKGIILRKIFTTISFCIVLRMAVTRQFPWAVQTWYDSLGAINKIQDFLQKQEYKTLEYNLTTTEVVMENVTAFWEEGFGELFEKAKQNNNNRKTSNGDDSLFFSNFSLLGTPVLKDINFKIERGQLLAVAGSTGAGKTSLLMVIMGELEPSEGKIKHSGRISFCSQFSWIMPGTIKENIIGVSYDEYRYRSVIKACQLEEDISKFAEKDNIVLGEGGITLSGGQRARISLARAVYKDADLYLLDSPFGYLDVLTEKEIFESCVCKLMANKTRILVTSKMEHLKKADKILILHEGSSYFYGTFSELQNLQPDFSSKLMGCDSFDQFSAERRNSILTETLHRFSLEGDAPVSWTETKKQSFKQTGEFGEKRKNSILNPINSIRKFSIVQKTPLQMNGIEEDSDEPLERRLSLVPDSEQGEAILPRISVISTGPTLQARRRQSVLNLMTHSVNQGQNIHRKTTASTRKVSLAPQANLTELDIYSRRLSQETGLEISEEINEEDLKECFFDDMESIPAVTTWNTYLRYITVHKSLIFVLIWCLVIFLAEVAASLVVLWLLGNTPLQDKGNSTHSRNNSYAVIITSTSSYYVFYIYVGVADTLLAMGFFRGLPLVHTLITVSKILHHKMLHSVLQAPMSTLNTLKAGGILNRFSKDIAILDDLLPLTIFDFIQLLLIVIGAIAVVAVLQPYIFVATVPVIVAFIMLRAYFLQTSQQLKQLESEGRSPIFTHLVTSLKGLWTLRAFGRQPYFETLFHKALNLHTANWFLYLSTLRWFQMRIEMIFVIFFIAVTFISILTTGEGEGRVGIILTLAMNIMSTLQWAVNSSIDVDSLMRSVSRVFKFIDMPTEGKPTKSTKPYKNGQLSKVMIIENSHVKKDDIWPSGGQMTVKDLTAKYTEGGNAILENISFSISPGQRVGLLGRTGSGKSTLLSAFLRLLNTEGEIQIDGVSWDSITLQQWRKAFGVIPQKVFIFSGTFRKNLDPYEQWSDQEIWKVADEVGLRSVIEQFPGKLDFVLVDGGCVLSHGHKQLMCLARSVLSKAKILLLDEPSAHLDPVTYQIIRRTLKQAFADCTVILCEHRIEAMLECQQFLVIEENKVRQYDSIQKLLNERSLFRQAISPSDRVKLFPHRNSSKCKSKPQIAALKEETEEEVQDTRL
T1 sequence (P13569 with tags, fused parts or gaps DEL508-508): as above

MTECC24 CFHBEC- Amax % (delF508-CFTR) [%]	EC50 (delF508-CFTR) [µM]	Emax [1] [%]	EC50 [1] [µM]	Structure (SMILES)
87.0	0.0381	405	2.99	COc1ccc(Cl)c(-c2nc(NS(=O)(=O)c3cccc(N4CC(O)C4)n3)ccc2Cl)c1 [Example 228, N-(5-chloro-6-(2-chloro-5-methoxyphenyl)pyridin-2-yl)-6-(3-hydroxyazetidin-1-yl)pyridine-2-sulfonamide]
254.3	0.00197	962	1.13	CCc1ccccc1-c1nc(NS(=O)(=O)c2cccc(N3CCCC(C)(C(=O)O)C3)n2)ccc1C(F)(F)F (stereo not drawn) [Example 371, 1-(6-(N-(6-(2-ethylphenyl)-5-(trifluoromethyl)pyridin-2-yl)sulfamoyl)pyridin-2-yl)-3-methylpiperidine-3-carboxylic Acid]
86.7	0.00204	648	1.96	Cc1ccc(F)cc1-c1nc(NS(=O)(=O)c2cccc(N3CCC[C@H](C(=O)O)C3)n2)ccc1C(F)(F)F [Example 359, (3S)-1-(6-{[6-(5-fluoro-2-methylphenyl)-5-(trifluoromethyl)pyridin-2-yl]sulfamoyl}pyridin-2-yl)piperidine-3-carboxylic Acid]
68.2	0.0066	568	1.61	CCC1(C(=O)O)CCN(c2cccc(S(=O)(=O)Nc3ccc(Cl)c(-c4c(C)cccc4C)n3)n2)CC1 [Example 248, 1-(6-(N-(5-chloro-6-(2,6-dimethylphenyl)pyridin-2-yl)sulfamoyl)pyridin-2-yl)-4-ethylpiperidine-4-carboxylic Acid]
90.6	0.0057	943	1.73	Cc1ccccc1-c1nc(NS(=O)(=O)c2cccc(N3CC(O)(C(F)(F)F)C3)n2)ccc1C(F)(F)F [Example 204, 6-(3-hydroxy-3-(trifluoromethyl)azetidin-1-yl)-N-(6-(o-tolyl)-5-(trifluoromethyl)pyridin-2-yl)pyridine-2-sulfonamide]
74.7	0.0331	264	2.78	Cc1ccccc1-c1nc(NS(=O)(=O)c2cccc(N[C@@H]3CCNC[C@@H]3F)n2)ccc1C(F)(F)F (relative stereo) [Example 117, 6-(((3S,4R)-3-fluoropiperidin-4-yl)amino)-N-(6-(o-tolyl)-5-(trifluoromethyl)pyridin-2-yl)pyridine-2-sulfonamide Hydrochloride]
69.2	0.0535	149	0.835	Cc1ccccc1-c1nc(NS(=O)(=O)c2cccc(N3CCN(C(N)=O)CC3)n2)ccc1C(F)(F)F [Example 184, 4-(6-(N-(6-(o-tolyl)-5-(trifluoromethyl)pyridin-2-yl)sulfamoyl)pyridin-2-yl)piperazine-1-carboxamide]
87.1	0.0383	700	2.22	Cc1cccc(C)c1-c1nc(NS(=O)(=O)c2cccc(N3CCn4cc(C(F)(F)F)nc4C3)n2)ccc1Cl [Example 199, N-(5-chloro-6-(2,6-dimethylphenyl)pyridin-2-yl)-6-(2-(trifluoromethyl)-5,6-dihydroimidazo[1,2-a]pyrazin-7(8H)-yl)pyridine-2-sulfonamide]
57.9	0.0372	270	2.82	Cc1ccccc1-c1nc(NS(=O)(=O)c2cccc(N3CC[C@H](N)C3)n2)ccc1C(F)(F)F [Example 120, (S)-6-(3-aminopyrrolidin-1-yl)-N-(6-(o-tolyl)-5-(trifluoromethyl)pyridin-2-yl)pyridine-2-sulfonamide Hydrochloride]
60.6	0.0211	513	2.94	O=S(=O)(Nc1ccc(C(F)(F)F)c(-c2cccc(F)c2Cl)n1)c1cccc(N2CC(O)C2)n1 [Example 230, N-(6-(2-chloro-3-fluorophenyl)-5-(trifluoromethyl)pyridin-2-yl)-6-(3-hydroxyazetidin-1-yl)pyridine-2-sulfonamide]
64.8	0.059	305	3.14	Cc1cccc(C)c1-c1nc(NS(=O)(=O)c2cccc(N3CCNCC3)n2)ccc1Cl [Example 163, N-(5-chloro-6-(2,6-dimethylphenyl)pyridin-2-yl)-6-(piperazin-1-yl)pyridine-2-sulfonamide Hydrochloride]
59.5	0.023	465	1.75	Cc1cc(F)ccc1-c1nc(NS(=O)(=O)c2cccc(N3CC(O)C3)n2)ccc1C(F)(F)F [Example 218, N-(6-(4-fluoro-2-methylphenyl)-5-(trifluoromethyl)pyridin-2-yl)-6-(3-hydroxyazetidin-1-yl)pyridine-2-sulfonamide]
55.4	0.0043	544	1.46	CC1(C(=O)O)CCN(c2cccc(S(=O)(=O)Nc3ccc(C(F)(F)F)c(-c4ccccc4C4CC4)n3)n2)CC1 [Example 237, 1-(6-(N-(6-(2-cyclopropylphenyl)-5-(trifluoromethyl)pyridin-2-yl)sulfamoyl)pyridin-2-yl)-4-methylpiperidine-4-carboxylic Acid]
67.1	0.025	195	3.48	Cc1c(F)cccc1-c1nc(NS(=O)(=O)c2ccnc(N3CCOC[C@H]3C)c2)ccc1Cl [Example 319, (R)—N-(5-chloro-6-(3-fluoro-2-methylphenyl)pyridin-2-yl)-2-(3-methylmorpholino)pyridine-4-sulfonamide]
61.9	0.0053	730	2.24	Cc1ccc(F)cc1-c1nc(NS(=O)(=O)c2cccc(N[C@@H]3[C@H](CO)[C@H]4CC[C@@H]3O4)n2)ccc1Cl [Example 128, N-(5-chloro-6-(5-fluoro-2-methylphenyl)pyridin-2-yl)-6-(((1S,2R,3R,4R)-3-(hydroxymethyl)-7-oxabicyclo[2.2.1]heptan-2-yl)amino)pyridine-2-sulfonamide]
75.6	0.21	194	3.79	Cc1c(C#N)cccc1-c1nc(NS(=O)(=O)c2cccc(N3CC(C)(O)C3)n2)ccc1Cl [Example 309, N-(5-chloro-6-(3-cyano-2-methylphenyl)pyridin-2-yl)-6-(3-hydroxy-3-methylazetidin-1-yl)pyridine-2-sulfonamide]
68.0	0.082	378	1.82	Cc1ccc(C(F)(F)F)cc1-c1nc(NS(=O)(=O)c2cccc(N3CC(C)(O)C3)n2)ccc1Cl [Example 212, N-(5-chloro-6-(2-methyl-5-(trifluoromethyl)phenyl)pyridin-2-yl)-6-(3-hydroxy-3-methylazetidin-1-yl)pyridine-2-sulfonamide]
86.7	0.0155	305	1.7	Nc1cccc(S(=O)(=O)Nc2ccc(Cl)c(-c3ccccc3C(F)(F)F)n2)n1 [Example 55, 6-amino-N-(5-chloro-6-(2-(trifluoromethyl)phenyl)pyridin-2-yl)pyridine-2-sulfonamide]
47.6	0.0079	428	1.95	Cc1ccccc1-c1nc(NS(=O)(=O)c2cccc(N3CCC[C@H](C(=O)O)C3)n2)ccc1C(F)(F)F [Example 333, (3S)-1-(6-{[6-(2-methylphenyl)-5-(trifluoromethyl)pyridin-2-yl]sulfamoyl}pyridin-2-yl)piperidine-3-carboxylic Acid]
49.4	0.0479	402	2.64	Cc1ccc(F)cc1-c1nc(NS(=O)(=O)c2ccnc(N3CC(O)C3)c2)ccc1C(F)(F)F [Example 324, N-(6-(5-fluoro-2-methylphenyl)-5-(trifluoromethyl)pyridin-2-yl)-2-(3-hydroxyazetidin-1-yl)pyridine-4-sulfonamide]
79.0	0.0317	414	2.83	Cc1ccccc1-c1nc(NS(=O)(=O)c2cccc(N3CCN(C)CC3)n2)ccc1C(F)(F)F [Example 189, 6-(4-methylpiperazin-1-yl)-N-(6-(o-tolyl)-5-(trifluoromethyl)pyridin-2-yl)pyridine-2-sulfonamide]
77.9	0.000533		2	Cc1c(F)cccc1-c1nc(NS(=O)(=O)c2cccc(N3CCCC(C)(C(=O)O)C3)n2)ccc1C(F)(F)F (stereo not drawn) [Example 362, 1-(6-{[6-(3-fluoro-2-methylphenyl)-5-(trifluoromethyl)pyridin-2-yl]sulfamoyl}pyridin-2-yl)-3-methylpiperidine-3-carboxylic Acid]
